Measured values taken from PMC12136037, “Type II kinase inhibitors that target Parkinson’s disease–associated LRRK2” (Science Advances, 2025).
Read-outs that look alike come from different tables or passages of the source.

Key:
Test in all cases: DSF 100 kinase selectivity screen;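 further: compound tested at 20 µM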
Format in all cases: binding
[1] = target: T1, ~100 representative kinases (Homo sapiens, UniProt O15264); details: protein MAPK13; average of three replicates
T1 construct: Recombinant protein kinase domains with a concentration of 2 μM
T1 sequence (O15264 1-365): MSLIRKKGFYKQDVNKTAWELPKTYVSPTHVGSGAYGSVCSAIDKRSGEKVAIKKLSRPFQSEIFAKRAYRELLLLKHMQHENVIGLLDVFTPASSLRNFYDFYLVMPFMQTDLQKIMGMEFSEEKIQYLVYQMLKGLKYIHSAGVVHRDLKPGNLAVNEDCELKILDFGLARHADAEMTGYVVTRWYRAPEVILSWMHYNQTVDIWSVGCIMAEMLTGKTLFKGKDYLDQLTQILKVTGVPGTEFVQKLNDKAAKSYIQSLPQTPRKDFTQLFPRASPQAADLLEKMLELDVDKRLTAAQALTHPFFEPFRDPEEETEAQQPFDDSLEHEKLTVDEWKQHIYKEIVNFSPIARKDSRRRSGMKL
Procedure, shortened: (§1)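 Each kinase domain, at 2 μM, is mixed with 20 μM test compound and SYPRO Orange in Hepes (20 mM, pH 7.5) with 500 mM NaCl. Temperature is then raised at 3°C/min and fluorescence-monitored unfolding yields the melting temperature change, ΔTm in degrees Celsius.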

[2] = target: T2, ~100 representative kinases (Homo sapiens, UniProt P15056)
T2 construct: Recombinant protein kinase domains with a concentration of 2 μM
T2 sequence (P15056 whole entry, the tested form may be a part): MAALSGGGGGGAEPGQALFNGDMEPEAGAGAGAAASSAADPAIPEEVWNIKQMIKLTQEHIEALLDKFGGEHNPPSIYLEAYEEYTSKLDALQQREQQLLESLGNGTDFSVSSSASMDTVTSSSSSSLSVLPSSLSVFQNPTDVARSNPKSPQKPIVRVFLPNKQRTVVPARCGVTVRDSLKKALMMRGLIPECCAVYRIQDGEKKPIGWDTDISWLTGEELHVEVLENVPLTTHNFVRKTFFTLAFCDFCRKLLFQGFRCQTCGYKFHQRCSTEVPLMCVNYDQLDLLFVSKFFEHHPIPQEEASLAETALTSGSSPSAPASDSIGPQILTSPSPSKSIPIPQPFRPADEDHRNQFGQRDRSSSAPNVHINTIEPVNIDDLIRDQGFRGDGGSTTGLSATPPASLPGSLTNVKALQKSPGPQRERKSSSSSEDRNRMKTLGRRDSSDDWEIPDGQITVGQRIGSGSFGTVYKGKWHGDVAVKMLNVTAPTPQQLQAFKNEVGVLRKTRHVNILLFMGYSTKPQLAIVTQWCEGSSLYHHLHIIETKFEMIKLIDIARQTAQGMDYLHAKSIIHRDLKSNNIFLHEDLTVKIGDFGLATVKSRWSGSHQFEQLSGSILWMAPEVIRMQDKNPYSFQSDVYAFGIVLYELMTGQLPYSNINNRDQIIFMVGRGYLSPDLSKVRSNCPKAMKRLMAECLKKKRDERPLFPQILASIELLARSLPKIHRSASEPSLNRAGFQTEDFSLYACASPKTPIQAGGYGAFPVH
Procedure, shortened: as §1

[3] = target: T3, ~100 representative kinases (Homo sapiens, UniProt Q15418); details: Protein RPS6KA1; DSF; average of three replicates
T3 construct: Recombinant protein kinase domains with a concentration of 2 μM
T3 sequence (Q15418 whole entry, the tested form may be a part): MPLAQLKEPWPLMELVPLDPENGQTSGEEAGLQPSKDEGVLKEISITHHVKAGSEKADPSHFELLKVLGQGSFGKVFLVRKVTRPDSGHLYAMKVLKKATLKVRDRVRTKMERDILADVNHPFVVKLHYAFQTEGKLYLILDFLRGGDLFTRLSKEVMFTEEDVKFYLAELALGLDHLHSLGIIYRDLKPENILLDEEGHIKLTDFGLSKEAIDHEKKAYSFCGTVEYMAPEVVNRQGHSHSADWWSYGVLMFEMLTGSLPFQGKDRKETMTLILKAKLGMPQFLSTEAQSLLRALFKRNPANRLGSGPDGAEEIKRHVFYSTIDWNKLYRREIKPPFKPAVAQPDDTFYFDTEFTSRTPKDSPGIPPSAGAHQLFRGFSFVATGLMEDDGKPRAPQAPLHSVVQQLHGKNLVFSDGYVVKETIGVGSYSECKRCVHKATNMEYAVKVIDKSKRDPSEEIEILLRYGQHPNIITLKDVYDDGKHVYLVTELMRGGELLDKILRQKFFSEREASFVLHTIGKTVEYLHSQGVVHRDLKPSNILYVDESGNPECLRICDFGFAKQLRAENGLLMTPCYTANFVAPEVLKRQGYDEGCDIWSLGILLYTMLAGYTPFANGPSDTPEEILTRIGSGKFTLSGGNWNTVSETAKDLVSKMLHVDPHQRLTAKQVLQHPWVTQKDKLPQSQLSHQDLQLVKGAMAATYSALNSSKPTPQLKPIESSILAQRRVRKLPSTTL
Procedure, shortened: as §1

[4] = target: T4, ~100 representative kinases (Homo sapiens, UniProt O96017); details: Protein CHEK2; average of three replicates
T4 construct: Recombinant protein kinase domains with a concentration of 2 μM
T4 sequence (O96017 whole entry, the tested form may be a part): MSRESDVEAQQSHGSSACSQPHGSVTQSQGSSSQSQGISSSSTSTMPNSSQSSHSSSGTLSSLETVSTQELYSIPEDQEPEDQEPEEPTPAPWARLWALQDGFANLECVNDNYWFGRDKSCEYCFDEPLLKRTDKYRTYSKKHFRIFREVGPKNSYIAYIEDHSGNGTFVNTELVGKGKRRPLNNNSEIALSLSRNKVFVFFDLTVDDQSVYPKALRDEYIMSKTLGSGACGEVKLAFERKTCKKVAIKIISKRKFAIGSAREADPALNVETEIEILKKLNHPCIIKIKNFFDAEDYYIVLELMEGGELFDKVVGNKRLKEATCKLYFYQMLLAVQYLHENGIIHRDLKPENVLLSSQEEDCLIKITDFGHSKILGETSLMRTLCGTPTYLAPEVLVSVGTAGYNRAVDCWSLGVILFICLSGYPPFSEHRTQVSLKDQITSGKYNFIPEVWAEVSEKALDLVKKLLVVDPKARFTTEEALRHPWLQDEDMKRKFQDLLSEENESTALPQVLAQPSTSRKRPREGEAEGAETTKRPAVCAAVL
Procedure, shortened: as §1

[5] = target: T5, ~100 representative kinases (Homo sapiens, UniProt Q16566); details: Protein CAMK4; average of three replicates
T5 construct: Recombinant protein kinase domains with a concentration of 2 μM
T5 sequence (Q16566 1-473): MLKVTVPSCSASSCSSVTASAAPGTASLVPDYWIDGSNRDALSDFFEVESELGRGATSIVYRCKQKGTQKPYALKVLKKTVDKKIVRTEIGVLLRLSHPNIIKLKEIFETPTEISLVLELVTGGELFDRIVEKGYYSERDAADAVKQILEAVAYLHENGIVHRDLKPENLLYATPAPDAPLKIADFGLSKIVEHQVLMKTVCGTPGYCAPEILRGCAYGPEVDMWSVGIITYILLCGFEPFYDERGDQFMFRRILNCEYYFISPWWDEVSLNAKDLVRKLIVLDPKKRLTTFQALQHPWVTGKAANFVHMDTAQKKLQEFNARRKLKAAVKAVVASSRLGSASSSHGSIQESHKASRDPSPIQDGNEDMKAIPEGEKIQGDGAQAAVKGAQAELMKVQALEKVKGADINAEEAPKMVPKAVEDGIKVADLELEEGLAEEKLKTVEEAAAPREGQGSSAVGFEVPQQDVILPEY
Procedure, shortened: as §1

[6] = target: T6, ~100 representative kinases (Homo sapiens, UniProt Q9Y2H1); details: Protein STK38L; DSF; average of three replicates
T6 construct: Recombinant protein kinase domains with a concentration of 2 μM
T6 sequence (Q9Y2H1 whole entry, the tested form may be a part): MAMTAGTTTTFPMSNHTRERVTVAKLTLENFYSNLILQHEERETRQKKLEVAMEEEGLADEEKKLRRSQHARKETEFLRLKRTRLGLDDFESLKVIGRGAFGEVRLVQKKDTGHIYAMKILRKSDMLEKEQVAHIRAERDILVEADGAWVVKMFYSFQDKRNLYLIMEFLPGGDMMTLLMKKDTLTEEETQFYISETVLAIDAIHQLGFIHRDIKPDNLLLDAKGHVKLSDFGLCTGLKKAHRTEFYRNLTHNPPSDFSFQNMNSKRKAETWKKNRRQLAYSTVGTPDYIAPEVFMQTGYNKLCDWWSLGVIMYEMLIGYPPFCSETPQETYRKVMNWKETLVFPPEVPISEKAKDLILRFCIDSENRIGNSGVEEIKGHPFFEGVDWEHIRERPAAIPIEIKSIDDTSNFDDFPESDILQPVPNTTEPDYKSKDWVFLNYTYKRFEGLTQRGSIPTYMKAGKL
Procedure, shortened: as §1

[7] = target: T7, ~100 representative kinases (Homo sapiens, UniProt Q9UKI8); details: Protein TLK1; DSF; average of three replicates
T7 construct: Recombinant protein kinase domains with a concentration of 2 μM
T7 sequence (Q9UKI8 1-766): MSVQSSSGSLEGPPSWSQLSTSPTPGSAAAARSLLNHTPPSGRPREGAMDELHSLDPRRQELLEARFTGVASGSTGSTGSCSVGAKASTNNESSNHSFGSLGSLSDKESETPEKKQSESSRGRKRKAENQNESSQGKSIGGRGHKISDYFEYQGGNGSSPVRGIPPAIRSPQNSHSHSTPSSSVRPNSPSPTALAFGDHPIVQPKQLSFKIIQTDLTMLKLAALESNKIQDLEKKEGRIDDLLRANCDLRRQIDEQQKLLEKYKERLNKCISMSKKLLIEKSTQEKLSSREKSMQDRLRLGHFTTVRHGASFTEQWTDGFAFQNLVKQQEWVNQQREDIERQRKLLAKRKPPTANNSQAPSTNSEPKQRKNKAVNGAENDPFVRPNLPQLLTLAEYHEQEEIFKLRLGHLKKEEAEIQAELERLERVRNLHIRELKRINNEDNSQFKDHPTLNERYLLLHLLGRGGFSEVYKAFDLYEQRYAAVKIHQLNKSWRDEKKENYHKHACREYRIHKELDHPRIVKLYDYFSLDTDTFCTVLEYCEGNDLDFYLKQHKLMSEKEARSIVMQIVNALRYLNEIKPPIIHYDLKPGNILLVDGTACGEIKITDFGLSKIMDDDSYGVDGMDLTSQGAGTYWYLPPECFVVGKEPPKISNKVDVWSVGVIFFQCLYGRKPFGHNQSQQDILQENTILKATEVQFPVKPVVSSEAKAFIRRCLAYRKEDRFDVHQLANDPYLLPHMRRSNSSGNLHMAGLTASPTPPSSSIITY
Procedure, shortened: as §1

[8] = target: T8, ~100 representative kinases (Homo sapiens, UniProt Q9UPE1); details: Protein SRPK3; DSF; average of three replicates
T8 construct: Recombinant protein kinase domains with a concentration of 2 μM
T8 sequence (Q9UPE1 whole entry, the tested form may be a part): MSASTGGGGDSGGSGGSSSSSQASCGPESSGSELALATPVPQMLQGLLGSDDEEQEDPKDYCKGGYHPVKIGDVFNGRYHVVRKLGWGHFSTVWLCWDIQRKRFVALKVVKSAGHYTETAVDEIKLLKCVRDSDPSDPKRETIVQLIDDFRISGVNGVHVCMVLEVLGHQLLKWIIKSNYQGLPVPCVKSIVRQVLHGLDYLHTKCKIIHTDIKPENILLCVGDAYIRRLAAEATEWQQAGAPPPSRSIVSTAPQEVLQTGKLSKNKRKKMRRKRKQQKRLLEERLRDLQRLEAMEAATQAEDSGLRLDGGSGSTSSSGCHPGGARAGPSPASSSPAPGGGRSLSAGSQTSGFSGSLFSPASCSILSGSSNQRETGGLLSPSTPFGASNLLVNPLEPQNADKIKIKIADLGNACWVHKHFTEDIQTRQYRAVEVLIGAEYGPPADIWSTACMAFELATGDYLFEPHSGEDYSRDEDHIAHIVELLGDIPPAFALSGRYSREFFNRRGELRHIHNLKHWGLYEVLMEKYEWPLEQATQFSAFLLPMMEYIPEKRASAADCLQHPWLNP
Procedure, shortened: as §1

[9] = Protein BRAF, average of three replicates

dTm [1] [K] | dTm [2, 9] [K] | dTm [3] [K] | dTm [4] [K] | dTm [5] [K] | dTm [6] [K] | dTm [7] [K] | dTm [8] [K] | Structure (SMILES) | dTm [2] [K]
4.74 | 35.22 | 2.57 | 15.46 | 1.39 | 2.95 | 0.86 | – | Cc1ccc(C(=O)Nc2ccc(CN3CCN(C)CC3)c(C(F)(F)F)c2)cc1C#Cc1c[nH]c2ncnc(N3CCOCC3)c12 [Compound 1] | –
9.94 | 9.50 | 0.23 | 4.13 | 2.18 | -0.20 | -1.13 | 6.73 | O=C(Nc1ccc(F)cc1)C1(C(=O)Nc2cccc(-c3c[nH]c4ncnc(N5CCOCC5)c34)c2)CC1 [Compound 2] | –
12.71 | 8.03 | -0.19 | 3.03 | 1.59 | -0.37 | -0.72 | 5.16 | O=C(Nc1cccc(-c2c[nH]c3ncnc(N4CCOCC4)c23)c1)c1cccn(-c2ccc(F)cc2)c1=O [Compound 4] | –
7.75 | 12.36 | 0.88 | 1.23 | 1.41 | 0.00 | 1.18 | 4.54 | Cc1cc(NC(=O)C2(C(=O)Nc3ccc(F)cc3)CC2)cc(-c2c[nH]c3ncnc(N4CCOCC4)c23)c1 [Compound 6] | –
6.18 | 10.02 | 0.47 | 1.65 | 2.09 | 0.00 | 1.55 | 3.94 | O=C(Nc1cccc(-c2c[nH]c3ncnc(N4CCOCC4)c23)c1)C1(C(=O)Nc2cccc3c2CCC3)CC1 [Compound 11] | –
7.89 | 6.85 | 0.56 | 3.05 | 1.57 | 0.29 | 0.18 | 4.78 | O=C(Nc1ccccc1)C1(C(=O)Nc2cccc(-c3c[nH]c4ncnc(N5CCOCC5)c34)c2)CC1 [Compound 12] | –
11.74 | 10.34 | -0.42 | 5.52 | 3.78 | 0.49 | 0.97 | 8.47 | O=C(Nc1ccc(Cl)cc1)C1(C(=O)Nc2cccc(-c3c[nH]c4ncnc(N5CCOCC5)c34)c2)CC1 [Compound 13] | –
9.07 | 8.39 | 0.14 | 3.90 | 1.05 | 0.07 | -0.87 | 5.15 | Cc1ccc(NC(=O)C2(C(=O)Nc3cccc(-c4c[nH]c5ncnc(N6CCOCC6)c45)c3)CC2)cc1 [Compound 14] | –
8.81 | 9.26 | 0.29 | 6.14 | 2.51 | 0.73 | -0.49 | 3.89 | CCc1ccc(NC(=O)C2(C(=O)Nc3cccc(-c4c[nH]c5ncnc(N6CCOCC6)c45)c3)CC2)cc1 [Compound 15] | –
5.41 | 4.18 | -0.37 | 2.18 | -0.20 | -0.19 | -1.11 | 2.74 | COc1ccc(NC(=O)C2(C(=O)Nc3cccc(-c4c[nH]c5ncnc(N6CCOCC6)c45)c3)CC2)cc1 [Compound 16] | –
9.50 | 7.80 | 0.38 | 4.07 | 1.60 | 0.13 | -0.35 | 5.74 | O=C(Nc1cccc(-c2c[nH]c3ncnc(N4CCOCC4)c23)c1)C1(C(=O)Nc2ccc(F)c(F)c2)CC1 [Compound 17] | –
12.04 | 10.73 | 0.70 | 5.34 | 3.34 | 0.59 | 0.17 | 7.93 | O=C(Nc1cccc(-c2c[nH]c3ncnc(N4CCOCC4)c23)c1)C1(C(=O)Nc2ccc(F)c(Cl)c2)CC1 [Compound 18] | –
0.51 | 1.48 | 0.64 | 0.72 | 0.15 | 0.75 | 0.65 | – | CCNc1nc(Nc2cc(F)c(C(=O)N3CCOCC3)cc2OC)ncc1C(F)(F)F [GNE-7915] | –

Structure (SMILES) | dTm [1] [K] | dTm [2, 9] [K] | dTm [3] [K] | dTm [4] [K] | dTm [5] [K] | dTm [6] [K] | dTm [7] [K] | dTm [8] [K] | dTm [2] [K]
COc1cc2c(Oc3ccc(NC(=O)C4(C(=O)Nc5ccc(F)cc5)CC4)cc3F)ccnc2cc1OCCCN1CCOCC1 [Foretinib, reference compound] | 9.64 | 6.96 | -0.88 | 18.83 | – | 0.47 | 0.36 | 7.41 | –
Cc1ccc(C(=O)Nc2ccc(CN3CCN(C)CC3)c(C(F)(F)F)c2)cc1C#Cc1cnc2[nH]ncc2c1 [GZD-824, reference compound] | 6.08 | – | 9.39 | 5.84 | 0.32 | 2.07 | -0.0844 | – | 38.00
C[C@@H]1CN(c2cc(-c3n[nH]c4ccc(OC5(C)CC5)cc34)ncn2)C[C@H](C)O1 [MLi2] | 0.32 | 0.50 | 2.98 | 3.06 | 1.22 | -0.08 | 0.0124 | – | –
Cn1cc(-c2c[nH]c3ncnc(N4CCOCC4)c23)cc1C#N [PFE-360] | 0.70 | 2.10 | 1.09 | 3.22 | 0.56 | 0.0435 | -0.11 | – | –
Cc1ccc(C(=O)Nc2ccc(CN3CCN(C)CC3)c(C(F)(F)F)c2)cc1C#Cc1cnc2cccnn12 [Ponatinib, reference compound] | – | 36.88 | 9.86 | – | 1.32 | – | – | – | –
CNC(=O)c1cc(Oc2ccc(NC(=O)Nc3cc(C(C)(C)C)nn3-c3ccc4ncccc4c3)c(F)c2)ccn1 [Rebastinib, reference compound] | 13.29 | – | 1.31 | 10.49 | 1.22 | – | 0.57 | 9.62 | –
CN[C@@H]1C[C@H]2O[C@@](C)([C@@H]1OC)n1c3ccccc3c3c4c(c5c6ccccc6n2c5c31)C(=O)NC4 [Staurosporine] | 8.03 | – | – | – | 8.45 | – | – | 4.52 | –
